These are literature values, as cited in US20030027808A1, “Farnesyl protein transferase inhibitor combinations with platinum compounds” (priority 2000, published 2003).

The series concerns colon cancer (LoVo). The settings on record: in combination with cisplatin; in vitro LoVo colon cancer model; reported at 90th AACR Annual Meeting, Apr. 10-14, 1999.

Regarding `Cn1cncc1C(N)(c1ccc(Cl)cc1)c1ccc2c(c1)c(-c1cccc(Cl)c1)cc(=O)n2C` (single isomer, unassigned; (+)) [(+)-6-[amino(4-chlorophenyl)(1-methyl-1H-imidazol-5-yl)methyl]-4-(3-chlorophenyl)-1-methyl-2(1H)-quinolinone], the “anti-tumor effect of the combination” value was “additive anti-tumor effect”.
